The values below come from PubChem BioAssay (NCI).

Structures are written as SMILES. Where “and” joins values, the source holds several entries; their conditions need not be identical. Equal entries are not always repeated.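 Dose response: 5 concentrations. Exposure: 48 h. Format: 96-well plates. Endpoint: linear interpolation; highest concentration if not reached. GI50 is the concentration that inhibits growth by half. TGI denotes the concentration required for complete inhibition of growth.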

The experiment deals with MDA-MB-468 breast. In words: NCI tumour cell line growth inhibition, 48 h.
Regarding `Cc1ccc(OCCCCCCNCCO)c(C)c1`, the GI50 is 8480 nM and the TGI was 23600 nM.
With `COc1cc(OC)c(/C=C/S(=O)(=O)Cc2ccc(OC)c(NCC(=O)O)c2)c(OC)c1`, the GI50 is 121 nM and 187 nM; the TGI is > 100000 nM.
As to `CCCCCCCCCCCCCCCCCC1=NC(C)(C)CN1CCO`, the GI50 is 1590 nM and the TGI was 3040 nM.
On to `Cc1cnc2[nH]c(-c3ccccc3)cc(=O)c2c1`, for which the GI50 is 24600 nM and the TGI is > 100000 nM.
On to `O=C(Nc1ccccc1)Nc1ccccc1CNc1nc(Nc2ccc(OCCN3CCCC3)cc2)ncc1Cl`, for which the GI50 is 1960 nM and the TGI came to 9400 nM.
As to `C#Cc1nc(C2=C(C)C(O)/C(=N/O)C2)cs1` (centres undefined), the GI50 was 17600 nM and the TGI is > 100000 nM.
Turning to `N#Cc1ccc(N2Cc3cc(Cl)ccc3OC3=C2C(=O)N(Cc2ccccc2)C3=O)cc1`, the GI50 is 1220 nM and the TGI was found to be 3260 nM.
The like results for `COc1ccc(N=C2NN=C(c3c[nH]c4ccccc34)CS2)cc1OC` were, in that order, 14600 nM and > 60500 nM.
Take `COc1cc(C(=O)N/N=C/c2cccc([N+](=O)[O-])c2)cc(OC)c1OC`: the GI50 was 2770 nM and the TGI was 14000 nM.
The like results for `Cc1csc(Nc2nc(-c3cccc(Cl)c3)nc(C(Cl)(Cl)Cl)n2)n1` were, in that order, 728 nM and 2180 nM.
With `Cn1c(COC(=O)NCCN2CCOCC2)nc2c(N3CCOCC3)nc(-c3ccccc3)nc21`, the GI50 was 1140 nM and the TGI worked out at 2950 nM.
As for `CC(C)(C)c1ccc(S(=O)(=O)N[C@H]2CC[C@H]3[C@@H]4CCc5cc(O)ccc5[C@H]4CC[C@]23C)cc1`, the GI50 was 2740 nM and the TGI amounted to 9600 nM.
Consider `C=CC[PH+](c1ccccc1)c1ccccc1.C=CC[PH+](c1ccccc1)c1ccccc1.[Cl][Pt][Cl]`, for which the GI50 was 2640 nM and the TGI stood at 7100 nM.
For `C=C(C)[C@@H]1CCC[C@]2(C(=O)O)CC[C@]3(C)[C@@H](CC[C@@H]4[C@@]5(C)C/C(=C/c6ccncc6)C(=O)C(C)(C)[C@@H]5CC[C@]43C)[C@@H]12`, the GI50 is 2100 nM and the TGI came out at 5490 nM.
In the case of `CCN(CC)CCOc1ccc(C2=C(c3ccccc3)CCc3cc(OC)ccc32)cc1`, the GI50 was 138 nM and the TGI came out at 418 nM.
The like results for `CC1(C)CC2(C)OC2C2(C1)N=NC(=Nc1ccccc1)O2` (centres undefined) were, in that order, 2470 nM and 7280 nM.
Turning to `CC(C)n1nc(C#Cc2cccc(NC(=O)c3cccc(C(F)(F)F)c3)c2)c2c(N)ncnc21`, the GI50 was 4540 nM and the TGI was found to be 28400 nM.
In the case of `C[C@]12CC[C@@H]3c4ccc(O)cc4CC[C@H]3[C@@H]1CC[C@@H]2NS(=O)(=O)c1ccc(-c2ccccc2)cc1`, the GI50 was 2960 nM and the TGI was 38800 nM.
For the compound `CN(C)c1ccc(Sc2ccc3nc(N)nc(N)c3c2)cc1`, the GI50 is 909 nM and the TGI stood at 2650 nM.
As to `Cn1cc(-c2nn3cc(-c4cccs4)nc3s2)c2cc(F)ccc21`, the GI50 is 1440 nM and the TGI was found to be 5470 nM.
As to `COc1ccc(N(Cc2cc(OC)c(OC)c(OC)c2)C2OC(=O)c3ccccc32)cc1` (centres undefined), the GI50 was 328 nM and the TGI is > 100000 nM.
Take `COc1ncnc2c(-c3ccco3)cn(COCc3ccccc3)c12`: the GI50 was 2400 nM and the TGI was > 50000 nM.
Regarding `O=c1[nH]c2cc(O)ccc2n2cc3c(F)cccc3c12`, the GI50 is 1360 nM and the TGI is > 100000 nM.
Turning to `COC(=O)Nc1nc2ccc(Sc3ccc(NC(=O)Nc4cc(C(F)(F)F)ccc4F)cc3)cc2[nH]1`, the GI50 is 882 nM and the TGI amounted to 4750 nM.
In the case of `CCOc1cccnc1/C=N/NC(N)=S`, the GI50 was 2540 nM and the TGI stood at 13300 nM.
The like results for `COc1cc(/C=C\c2cccnc2Nc2ccccc2)cc(OC)c1OC` were, in that order, 6770 nM and 48700 nM.
The like results for `C#Cc1ccc(-n2c(/C=C/c3cc(OC)c(OC)c(OC)c3)nc3ncccc3c2=O)cc1` were, in that order, 2830 nM and > 100000 nM.
